From ChEMBL document CHEMBL1926646 (Bioorg Med Chem, 2011)
One block for each compound: values may come before it. Activity calls are given as the source filed them. The calls are words filed in the database; no cut-off is given here.

Legend:
[1] = molecular target: Dipeptidyl peptidase 8 (Homo sapiens, UniProt Q6V1X1); experiment: Inhibition of human recombinant DPP-8 expressed in Sf9 cells using H-Gly-Pro-AMC as substrate preincubated for 30 mins before substrate addition measured after 20 mins by fluorescence assay
Dipeptidyl peptidase 8, sequence (Q6V1X1 whole entry): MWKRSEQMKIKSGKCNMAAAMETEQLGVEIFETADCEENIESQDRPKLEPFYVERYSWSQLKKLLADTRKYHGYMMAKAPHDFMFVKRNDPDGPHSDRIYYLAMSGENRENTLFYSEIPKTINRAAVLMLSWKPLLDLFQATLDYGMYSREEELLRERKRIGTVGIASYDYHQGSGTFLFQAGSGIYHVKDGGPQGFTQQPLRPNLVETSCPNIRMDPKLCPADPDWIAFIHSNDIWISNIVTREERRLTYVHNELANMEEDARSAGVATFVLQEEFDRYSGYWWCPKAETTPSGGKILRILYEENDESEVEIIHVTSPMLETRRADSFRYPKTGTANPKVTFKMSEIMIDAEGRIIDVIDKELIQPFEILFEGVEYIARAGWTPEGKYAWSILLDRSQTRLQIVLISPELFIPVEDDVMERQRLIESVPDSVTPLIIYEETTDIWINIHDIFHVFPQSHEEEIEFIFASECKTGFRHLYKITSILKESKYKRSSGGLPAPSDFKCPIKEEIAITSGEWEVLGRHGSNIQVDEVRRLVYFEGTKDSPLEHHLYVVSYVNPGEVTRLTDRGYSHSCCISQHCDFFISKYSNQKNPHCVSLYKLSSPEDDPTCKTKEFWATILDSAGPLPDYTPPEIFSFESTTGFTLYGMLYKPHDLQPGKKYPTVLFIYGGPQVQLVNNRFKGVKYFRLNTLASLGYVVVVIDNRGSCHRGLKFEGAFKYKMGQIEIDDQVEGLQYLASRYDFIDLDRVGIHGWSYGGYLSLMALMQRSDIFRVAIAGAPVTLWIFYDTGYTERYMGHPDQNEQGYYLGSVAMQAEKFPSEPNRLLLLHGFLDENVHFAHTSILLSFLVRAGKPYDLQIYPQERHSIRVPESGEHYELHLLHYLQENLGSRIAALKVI

[2] = test system: Rattus norvegicus; experiment: Increase in insulin level in Wistar/ST rat at 0.1 to 1 mg/kg, po pretreated 30 mins before glucose challenge measured after 10 mins; format: functional, organism-based
[3] = test system: Rattus norvegicus; experiment: Antidiabetic activity in Wistar/ST rat plasma assessed as reduction in glucose AUC (0 to 60 mins) at 1 mg/kg, po pretreated 30 mins before glucose challenge measured for 2 hrs by oral glucose tolerance test; format: functional, organism-based; set-up: dose 1 mg/kg
[4] = test system: Rattus norvegicus; experiment: Inhibition of plasma DPP-4 activity in orally dosed Wistar/ST rat pretreated 30 mins before glucose challenge measured for 2 hrs during oral glucose tolerance test; format: functional, organism-based
[5] = Cmax in Sprague-Dawley rat at 3 mg/kg, po; format: ADME, organism-based; set-up: dose 3 mg/kg, route oral; settings: in vivo
[6] = Drug excretion in dog feces assessed as unchanged drug at 1 mg/kg, iv measured over 24 hrs; format: ADME, organism-based, Canis lupus familiaris; set-up: dose 1 mg/kg, route intravenous; settings: faeces, read-out: AE
[7] = Total clearance in Beagle dog at 0.2 mg/kg, iv; format: ADME, organism-based, Canis lupus familiaris; set-up: dose 0.2 mg/kg, route intravenous; settings: in vivo
[8] = Tmax in Sprague-Dawley rat at 3 mg/kg, po; format: ADME, organism-based; set-up: dose 3 mg/kg, route oral; settings: in vivo
[9] = Plasma protein binding in dog at 20 ng/ml after 0.5 hrs by LC-MS/MS analysis; format: ADME, cell-free, Canis lupus familiaris; settings: read-out: PPB (converted)
[10] = molecular target: T1, Cytochrome P450 2C8 (Homo sapiens, UniProt P10632); experiment: Induction of CYP2C8 at 50 uM; format: ADME
T1 sequence (P10632 whole entry): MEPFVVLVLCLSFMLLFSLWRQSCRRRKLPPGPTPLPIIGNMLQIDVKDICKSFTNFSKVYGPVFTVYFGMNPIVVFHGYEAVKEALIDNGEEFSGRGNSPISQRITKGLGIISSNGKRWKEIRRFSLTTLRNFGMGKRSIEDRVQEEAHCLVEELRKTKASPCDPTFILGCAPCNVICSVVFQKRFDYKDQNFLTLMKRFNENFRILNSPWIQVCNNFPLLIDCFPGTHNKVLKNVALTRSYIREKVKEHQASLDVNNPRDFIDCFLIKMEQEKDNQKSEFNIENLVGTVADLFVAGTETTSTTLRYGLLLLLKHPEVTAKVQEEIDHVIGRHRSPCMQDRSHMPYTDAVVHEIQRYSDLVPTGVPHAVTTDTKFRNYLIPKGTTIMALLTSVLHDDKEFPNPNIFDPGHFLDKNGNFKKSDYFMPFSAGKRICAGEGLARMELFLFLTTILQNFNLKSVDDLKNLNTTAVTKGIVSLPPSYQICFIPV

[11] = test system: Salmonella typhimurium; experiment: Mutagenic activity in Salmonella Typhimurium by Ames test; format: toxicity, organism-based; settings: salmonella enterica subsp. enterica serovar typhimurium
[12] = Drug excretion in bile-duct cannulated Sprague-Dawley rat urine assessed as unchanged drug at 5 mg/kg, iv measured over 24 hrs; format: ADME, organism-based; set-up: dose 5 mg/kg, route intravenous; settings: read-out: AE
[13] = test system: Rattus norvegicus; experiment: Inhibition of plasma DPP-4 activity in Wistar/ST rat at 0.1 mg/kg, po pretreated 30 mins before glucose challenge measured for 2 hrs during oral glucose tolerance test; format: functional
[14] = Terminal half life in Beagle dog at 0.5 mg/kg, po; format: ADME, organism-based, Canis lupus familiaris; set-up: dose 0.5 mg/kg, route oral; settings: in vivo, read-out: beta t1/2 (converted)
[15] = Drug level in Sprague-Dawley rat plasma at 3 mg/kg at Tmax; format: ADME, organism-based; set-up: dose 3 mg/kg; settings: read-out: Drug uptake
[16] = Terminal half life in Sprague-Dawley rat at 10 mg/kg, po; format: ADME, organism-based; set-up: dose 10 mg/kg, route oral; settings: in vivo, read-out: beta t1/2 (converted)
[17] = Cmax in Sprague-Dawley rat at 10 mg/kg, po; format: ADME, organism-based; set-up: dose 10 mg/kg, route oral; settings: in vivo
[18] = test system: Canis familiaris; experiment: Volume of distribution at steady state in Beagle dog at 0.2 mg/kg, iv; format: ADME, organism-based, Canis lupus familiaris; set-up: dose 0.2 mg/kg, route intravenous; settings: in vivo
[19] = molecular target: Voltage-gated inwardly rectifying potassium channel KCNH2 (Homo sapiens, UniProt Q12809); experiment: Inhibition of human ERG expressed in HEK293 cells by patch clamp assay; format: cell-based
Voltage-gated inwardly rectifying potassium channel KCNH2, sequence (Q12809 whole entry): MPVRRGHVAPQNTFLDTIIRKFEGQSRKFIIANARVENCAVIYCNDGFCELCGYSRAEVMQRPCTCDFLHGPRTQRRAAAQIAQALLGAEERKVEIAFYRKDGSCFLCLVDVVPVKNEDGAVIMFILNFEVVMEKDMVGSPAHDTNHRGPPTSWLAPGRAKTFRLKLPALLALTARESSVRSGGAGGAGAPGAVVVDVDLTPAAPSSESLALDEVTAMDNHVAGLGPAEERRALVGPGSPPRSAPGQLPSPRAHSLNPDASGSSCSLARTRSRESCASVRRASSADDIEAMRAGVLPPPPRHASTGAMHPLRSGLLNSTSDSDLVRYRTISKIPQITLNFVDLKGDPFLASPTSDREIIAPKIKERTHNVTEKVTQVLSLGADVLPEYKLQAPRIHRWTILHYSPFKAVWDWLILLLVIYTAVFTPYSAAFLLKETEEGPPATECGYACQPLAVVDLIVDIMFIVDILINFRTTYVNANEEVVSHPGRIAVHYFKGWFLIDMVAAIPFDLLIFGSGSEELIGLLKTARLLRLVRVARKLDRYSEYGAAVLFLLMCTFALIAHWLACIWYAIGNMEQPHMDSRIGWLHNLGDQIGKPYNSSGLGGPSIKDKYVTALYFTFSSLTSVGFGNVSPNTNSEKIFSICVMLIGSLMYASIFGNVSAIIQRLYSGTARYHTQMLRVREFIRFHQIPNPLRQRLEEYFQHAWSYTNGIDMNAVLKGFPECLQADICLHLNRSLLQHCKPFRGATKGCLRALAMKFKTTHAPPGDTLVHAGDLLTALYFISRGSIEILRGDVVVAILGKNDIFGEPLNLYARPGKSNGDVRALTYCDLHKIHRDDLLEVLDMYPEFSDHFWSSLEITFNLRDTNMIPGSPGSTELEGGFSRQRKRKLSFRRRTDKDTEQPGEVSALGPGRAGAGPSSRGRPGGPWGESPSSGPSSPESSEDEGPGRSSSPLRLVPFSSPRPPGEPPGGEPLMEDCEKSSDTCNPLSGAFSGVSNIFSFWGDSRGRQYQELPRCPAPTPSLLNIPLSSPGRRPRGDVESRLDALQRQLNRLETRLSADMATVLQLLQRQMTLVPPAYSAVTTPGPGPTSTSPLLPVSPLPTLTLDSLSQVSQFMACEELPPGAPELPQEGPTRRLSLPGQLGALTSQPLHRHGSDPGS

[20] = molecular target: Dipeptidyl peptidase 9 (Homo sapiens, UniProt Q86TI2); experiment: Inhibition of human recombinant DPP-9 expressed in Sf9 cells using H-Gly-Pro-AMC as substrate preincubated for 30 mins before substrate addition measured after 20 mins by fluorescence assay
Dipeptidyl peptidase 9, sequence (Q86TI2 whole entry): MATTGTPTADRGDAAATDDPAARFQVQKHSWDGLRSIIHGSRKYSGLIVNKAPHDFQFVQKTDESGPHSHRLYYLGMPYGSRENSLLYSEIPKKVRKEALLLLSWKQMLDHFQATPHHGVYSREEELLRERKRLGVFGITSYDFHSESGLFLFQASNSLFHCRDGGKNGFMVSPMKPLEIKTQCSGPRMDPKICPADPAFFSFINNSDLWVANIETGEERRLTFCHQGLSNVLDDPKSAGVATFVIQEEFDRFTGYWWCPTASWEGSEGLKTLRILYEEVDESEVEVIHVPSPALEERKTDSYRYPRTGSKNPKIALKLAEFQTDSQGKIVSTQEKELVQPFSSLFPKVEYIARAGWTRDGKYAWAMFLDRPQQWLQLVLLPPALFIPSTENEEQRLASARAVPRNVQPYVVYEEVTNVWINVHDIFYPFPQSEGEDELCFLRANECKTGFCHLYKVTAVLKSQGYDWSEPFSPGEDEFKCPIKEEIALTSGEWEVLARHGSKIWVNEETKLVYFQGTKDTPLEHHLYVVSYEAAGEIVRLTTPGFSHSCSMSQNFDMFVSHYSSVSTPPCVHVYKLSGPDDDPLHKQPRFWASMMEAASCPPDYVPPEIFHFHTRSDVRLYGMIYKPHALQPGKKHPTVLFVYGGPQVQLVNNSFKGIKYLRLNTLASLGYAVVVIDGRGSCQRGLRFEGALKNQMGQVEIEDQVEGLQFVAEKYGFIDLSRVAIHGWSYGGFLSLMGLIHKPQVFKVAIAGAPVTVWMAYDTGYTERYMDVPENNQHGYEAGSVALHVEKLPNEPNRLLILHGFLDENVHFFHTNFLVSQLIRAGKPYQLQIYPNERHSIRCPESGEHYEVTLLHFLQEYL

[21] = Total clearance in Sprague-Dawley rat at 1 mg/kg, iv; format: ADME, organism-based; set-up: dose 1 mg/kg, route intravenous; settings: in vivo
[22] = Plasma protein binding in dog at 2000 ng/ml after 0.5 hrs by LC-MS/MS analysis; format: ADME, cell-free, Canis lupus familiaris; settings: read-out: PPB (converted)
[23] = molecular target: T2, Cytochrome P450 1A2 (Homo sapiens, UniProt P05177); experiment: Inhibition of CYP1A2; format: ADME
T2 sequence (P05177 whole entry): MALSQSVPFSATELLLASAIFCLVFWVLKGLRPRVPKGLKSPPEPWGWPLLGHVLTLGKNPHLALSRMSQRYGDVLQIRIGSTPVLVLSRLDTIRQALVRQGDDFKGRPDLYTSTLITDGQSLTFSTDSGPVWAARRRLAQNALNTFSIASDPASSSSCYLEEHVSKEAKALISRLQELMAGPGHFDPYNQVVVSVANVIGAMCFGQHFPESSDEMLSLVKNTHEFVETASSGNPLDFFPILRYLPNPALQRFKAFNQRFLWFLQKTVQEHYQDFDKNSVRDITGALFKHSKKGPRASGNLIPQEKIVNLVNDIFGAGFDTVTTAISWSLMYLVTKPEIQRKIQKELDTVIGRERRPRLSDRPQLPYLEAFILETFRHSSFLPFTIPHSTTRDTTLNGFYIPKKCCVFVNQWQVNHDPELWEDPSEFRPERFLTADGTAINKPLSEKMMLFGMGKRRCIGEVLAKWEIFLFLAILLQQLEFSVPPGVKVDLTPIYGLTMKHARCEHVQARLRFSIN

[24] = test system: Rattus norvegicus; experiment: AUC in Sprague-Dawley rat at 10 mg/kg, po; format: ADME, organism-based, Plasma; set-up: dose 10 mg/kg, route oral; settings: in vivo
[25] = molecular target: Cytochrome P450 2C19 (Homo sapiens, UniProt P33261); experiment: Inhibition of CYP2C19; format: ADME
Cytochrome P450 2C19, sequence (P33261 whole entry): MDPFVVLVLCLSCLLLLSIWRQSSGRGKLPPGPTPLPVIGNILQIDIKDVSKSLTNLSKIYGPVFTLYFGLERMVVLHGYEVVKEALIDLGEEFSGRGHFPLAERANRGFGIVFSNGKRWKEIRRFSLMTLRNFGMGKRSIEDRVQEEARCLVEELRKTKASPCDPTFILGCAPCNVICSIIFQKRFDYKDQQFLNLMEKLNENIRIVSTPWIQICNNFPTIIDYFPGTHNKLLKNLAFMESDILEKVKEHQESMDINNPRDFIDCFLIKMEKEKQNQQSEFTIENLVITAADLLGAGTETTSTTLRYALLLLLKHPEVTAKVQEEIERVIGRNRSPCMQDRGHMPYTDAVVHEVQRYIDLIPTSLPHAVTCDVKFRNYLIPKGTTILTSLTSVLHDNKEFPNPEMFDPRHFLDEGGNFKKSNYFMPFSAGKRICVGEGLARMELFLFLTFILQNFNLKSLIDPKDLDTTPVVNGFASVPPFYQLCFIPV

[26] = test system: Canis familiaris; experiment: AUC in Beagle dog at 0.5 mg/kg, po; format: ADME, organism-based, Canis lupus familiaris, Plasma; set-up: dose 0.5 mg/kg, route oral; settings: in vivo
[27] = test system: Rattus norvegicus; experiment: Inhibition of plasma DPP-4 activity in Wistar/ST rat at 3 mg/kg, po pretreated 30 mins before glucose challenge measured for 2 hrs during oral glucose tolerance test; format: functional
[28] = molecular target: T3, Cytochrome P450 2C9 (Homo sapiens, UniProt P11712); experiment: Induction of CYP2C9 at 50 uM; format: ADME
T3 sequence (P11712 whole entry): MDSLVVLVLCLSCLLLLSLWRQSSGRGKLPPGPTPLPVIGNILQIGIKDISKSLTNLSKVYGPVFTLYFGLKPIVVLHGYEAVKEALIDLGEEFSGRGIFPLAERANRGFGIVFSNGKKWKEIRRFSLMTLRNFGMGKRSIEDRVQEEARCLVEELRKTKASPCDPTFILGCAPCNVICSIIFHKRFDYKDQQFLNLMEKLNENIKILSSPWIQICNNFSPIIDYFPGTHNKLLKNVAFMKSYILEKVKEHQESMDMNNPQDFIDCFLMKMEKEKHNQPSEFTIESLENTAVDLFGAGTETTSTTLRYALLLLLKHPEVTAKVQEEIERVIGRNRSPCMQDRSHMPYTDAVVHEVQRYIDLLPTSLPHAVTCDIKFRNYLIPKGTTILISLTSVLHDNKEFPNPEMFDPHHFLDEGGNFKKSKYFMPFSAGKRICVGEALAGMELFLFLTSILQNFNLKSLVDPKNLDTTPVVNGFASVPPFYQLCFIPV

[29] = Plasma protein binding in rat at 2000 ng/ml after 0.5 hrs by LC-MS/MS analysis; format: ADME, cell-free; settings: read-out: PPB (converted)
[30] = Plasma protein binding in human at 2000 ng/ml after 0.5 hrs by LC-MS/MS analysis; format: ADME, cell-free; settings: read-out: PPB (converted)
[31] = Drug excretion in bile-duct cannulated Sprague-Dawley rat bile assessed as unchanged drug at 1 mg/kg, iv measured over 24 hrs; format: ADME, organism-based; set-up: dose 1 mg/kg, route intravenous; settings: read-out: AE
[32] = Intrinsic clearance in rat liver microsomes; format: ADME, Microsome
[33] = Tmax in Beagle dog at 0.5 mg/kg, po; format: ADME, organism-based, Canis lupus familiaris; set-up: dose 0.5 mg/kg, route oral; settings: in vivo
[34] = molecular target: T2, Cytochrome P450 1A2; experiment: Induction of CYP1A2 at 50 uM; format: ADME
[35] = Drug excretion in bile-duct cannulated Sprague-Dawley rat bile assessed as unchanged drug at 5 mg/kg, iv measured over 24 hrs; format: ADME, organism-based; set-up: dose 5 mg/kg, route intravenous; settings: read-out: AE
[36] = Cmax in Beagle dog at 0.5 mg/kg, po; format: ADME, organism-based, Canis lupus familiaris; set-up: dose 0.5 mg/kg, route oral; settings: in vivo
[37] = Oral bioavailability in Sprague-Dawley rat at 10 mg/kg; format: ADME, organism-based; settings: in vivo
[38] = Intrinsic clearance in dog liver microsomes; format: ADME, Canis lupus familiaris, Microsome
[39] = molecular target: T3, Cytochrome P450 2C9; experiment: Inhibition of CYP2C9; format: ADME
[40] = molecular target: T4, Cytochrome P450 3A4 (Homo sapiens, UniProt P08684); experiment: Inhibition of CYP3A4; format: ADME
T4 sequence (P08684 whole entry): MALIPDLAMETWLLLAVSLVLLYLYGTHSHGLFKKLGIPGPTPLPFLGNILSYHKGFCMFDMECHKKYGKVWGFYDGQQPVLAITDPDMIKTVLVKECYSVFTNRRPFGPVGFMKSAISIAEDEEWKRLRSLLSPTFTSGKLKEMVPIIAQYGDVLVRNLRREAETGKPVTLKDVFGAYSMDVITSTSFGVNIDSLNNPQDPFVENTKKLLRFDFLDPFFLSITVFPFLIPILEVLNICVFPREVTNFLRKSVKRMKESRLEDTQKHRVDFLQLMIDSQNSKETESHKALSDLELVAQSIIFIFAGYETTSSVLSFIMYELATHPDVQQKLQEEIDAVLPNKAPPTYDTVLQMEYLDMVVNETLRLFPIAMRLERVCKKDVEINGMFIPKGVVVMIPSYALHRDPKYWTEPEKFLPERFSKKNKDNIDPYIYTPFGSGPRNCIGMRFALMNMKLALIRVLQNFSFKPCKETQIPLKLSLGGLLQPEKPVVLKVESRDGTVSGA

[41] = Intrinsic clearance in human liver microsomes; format: ADME, Microsome
[42] = molecular target: T4, Cytochrome P450 3A4; experiment: Induction of CYP3A4 at 50 uM; format: ADME
[43] = Plasma protein binding in rat at 20 ng/ml after 0.5 hrs by LC-MS/MS analysis; format: ADME, cell-free; settings: read-out: PPB (converted)
[44] = Drug excretion in dog urine assessed as unchanged drug at 1 mg/kg, iv measured over 24 hrs; format: ADME, organism-based, Canis lupus familiaris; set-up: dose 1 mg/kg, route intravenous; settings: read-out: AE
[45] = Tmax in Sprague-Dawley rat at 10 mg/kg, po; format: ADME, organism-based; set-up: dose 10 mg/kg, route oral; settings: in vivo
[46] = test system: Rattus norvegicus; experiment: Volume of distribution at steady state in Sprague-Dawley rat at 1 mg/kg, iv; format: ADME, organism-based; set-up: dose 1 mg/kg, route intravenous; settings: in vivo
[47] = molecular target: Cytochrome P450 2D6 (Homo sapiens, UniProt P10635); experiment: Inhibition of CYP2D6; format: ADME
Cytochrome P450 2D6, sequence (P10635 whole entry): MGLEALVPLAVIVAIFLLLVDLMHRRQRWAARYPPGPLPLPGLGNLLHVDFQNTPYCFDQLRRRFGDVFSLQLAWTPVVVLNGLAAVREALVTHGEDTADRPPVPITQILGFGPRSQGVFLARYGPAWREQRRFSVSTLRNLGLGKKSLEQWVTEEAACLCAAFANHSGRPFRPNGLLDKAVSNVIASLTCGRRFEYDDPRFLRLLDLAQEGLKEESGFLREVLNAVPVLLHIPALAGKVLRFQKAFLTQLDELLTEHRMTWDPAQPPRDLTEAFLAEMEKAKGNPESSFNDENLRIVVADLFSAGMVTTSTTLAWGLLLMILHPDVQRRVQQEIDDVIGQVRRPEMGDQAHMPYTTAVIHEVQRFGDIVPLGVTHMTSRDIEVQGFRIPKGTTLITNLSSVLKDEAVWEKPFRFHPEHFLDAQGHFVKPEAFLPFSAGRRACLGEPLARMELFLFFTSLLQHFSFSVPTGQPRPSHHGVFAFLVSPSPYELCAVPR

[48] = Intrinsic clearance in monkey liver microsomes; format: ADME, Macaca mulatta, Microsome; settings: rhesus monkey
[49] = Plasma protein binding in human at 20 ng/ml after 0.5 hrs by LC-MS/MS analysis; format: ADME, cell-free; settings: read-out: PPB (converted)
[50] = Drug excretion in bile-duct cannulated Sprague-Dawley rat urine assessed as unchanged drug at 1 mg/kg, iv measured over 24 hrs; format: ADME, organism-based; set-up: dose 1 mg/kg, route intravenous; settings: read-out: AE
[51] = Oral bioavailability in Beagle dog at 0.5 mg/kg; format: ADME, organism-based, Canis lupus familiaris; settings: in vivo
[52] = molecular target: Dipeptidyl peptidase 2 (Homo sapiens, UniProt Q9UHL4); experiment: Inhibition of DPP-2 expressed in human Caco-2 cells using H-Lys-Ala-AMC as substrate preincubated for 30 mins before substrate addition measured after 20 mins by fluorescence assay; format: cell-based

IC50 [1]: > 100 µM
SMILES: Cc1nc2cc(C(C)(C)C)nn2c(C)c1C(=O)NCC(C)(C)NCC(=O)N1CCC[C@H]1C#N

SMILES: Cc1cc2ncc(C(=O)NCC(C)(C)NCC(=O)N3CCC[C@H]3C#N)cn2n1
Activity [2]: Active | Activity [3]: Active | inhibition [4]: Dose-dependent effect

Cmax [5]: 62 ng/mL | clearance [7]: 10.8 mL/min/kg | Tmax [8]: 2.3 h | fraction unbound at 0.5 h, 20 ng/ml [9]: 0.352 | Activity [10]: Not Active | half-life [14]: 1 h | Cmax [15]: 14 nM | half-life [16]: 1.9 h | Cmax [17]: 309 ng/mL | Vdss [18]: 0.83 L/kg | IC50 [20]: 60 µM | clearance [21]: 33.3 mL/min/kg | fraction unbound at 0.5 h, 2000 ng/ml [22]: 0.482 | IC50 [23]: > 10 µM | AUC [24]: 1160 ng·h/mL | IC50 [25]: > 10 µM | AUC [26]: 824 ng·h/mL | Activity [28]: Not Active | IC50 [1]: 68 µM | fraction unbound at 0.5 h, 2000 ng/ml [29]: 0.229 | fraction unbound at 0.5 h, 2000 ng/ml [30]: 0.736 | CLint scaled [32]: 23.3 mL/min/kg | Tmax [33]: 1.5 h | Activity [34]: Not Active | Cmax [36]: 261 ng/mL | bioavailability [37]: 23% | CLint scaled [38]: 1.67 mL/min/kg | IC50 [39]: > 10 µM | IC50 [40]: > 10 µM | CLint scaled [41]: 5 mL/min/kg | Activity [42]: Not Active | fraction unbound at 0.5 h, 20 ng/ml [43]: 0.227 | Tmax [45]: 0.8 h | Vdss [46]: 0.68 L/kg | IC50 [47]: > 10 µM | CLint scaled [48]: 8.33 mL/min/kg | fraction unbound at 0.5 h, 20 ng/ml [49]: 0.708 | bioavailability [51]: 100%
SMILES: Cc1cc2ncc(C(=O)NCC(C)(C)NCC(=O)N3CCC[C@H]3C#N)cn2n1.Cl [ANAGLIPTIN HYDROCHLORIDE]
dose excreted at 24 h [6]: 24% | Activity [11]: Non-toxic | dose excreted at 24 h [12]: 41% | inhibition in vivo at 0.1 mg/kg [13]: 30% | IC50 [19]: > 500 µM | inhibition in vivo at 3 mg/kg [27]: 95% | dose excreted at 24 h [31]: 13% | dose excreted at 24 h [35]: 14% | dose excreted at 24 h [44]: 32% | dose excreted at 24 h [50]: 30%

IC50 [52]: 177 µM
SMILES: Cc1cc2ncc(C(=O)NCC(C)(C)NCC(=O)N3CCC[C@H]3C#N)cn2n1 [ANAGLIPTIN]
